# Laboratory results published in patent publication US20090239757A1, “Control Sequences Responding to AMP and Uses Thereof” (priority 2004, published 2009).
# Residues, ends and D or L forms follow the SMILES beside them.
# Test system: E. coli TOP10
# Assay: microarray transcription profile of E. coli TOP10 expressing Novispirin G10 (pDRS5-novispirin, arabinose induced) relative to control strain pBAD gIII A
# Type: cell-based, Escherichia coli
# Protocol: In order to obtain a transcriptional profile of E. coli expressing Novispirin G10, 2×10 mL sterile LB media (10 g/L Bactotryptone, 5 g/L Yeast extract, and 10 g/L NaCl) containing 100 mg/L ampicillin was inoculated with E. coli TOP10 harbouring pDRS5-novispirin and pBAD gIII A, respectively. These cultures were grown overnight at 37° C. at 180 rpm. The overnight cultures were diluted 1/100 into fresh sterile RM media (2% Casamino Acids, 0.2% glycerol, 1 mM MgCl2, 0.1 mM thiamine, 6 g/L Na2HPO4, 3 g/L KH2PO4.2H2O, 0.5 g/L NaCl, 0.1 g/L NH4Cl at pH 7.4) supplemented with 100 mg/L ampicillin and 0.1% arabinose. 100 mL of each culture was grown at 37° C., 240 rpm for 4.5 hours before being harvested by poured into centrifugation tubes containing 10 mL pre-frozen milliQ water and immediate centrifugation at 4200 g for 15 minutes at 4° C. Immediately hereafter, the supernatant was decanted and the cell […] was frozen at −20° C. for storage until RNA preparation was initiated.
# Total RNA was isolated from the two E. coli (expressing either Novispirin G10 or a control peptide) cultures by use of the High Pure RNA Isolation kit (Roche, cat #1 828 665) according to the manufacturers instructions. Residual DNA was removed on-column with RNase-free DNase. Labelled samples were prepared from 30 μg of total bacterial RNA. Fluorescent first strand cDNA was prepared by random primed reverse transcription (Superscript II; Life Technologies) by use of random hexamers for cDNA synthesis. 2 μl (20 μg) of random primer was mixed with 15 μl (30 μg) of total RNA, incubated for 5 min at 70° C., and cooled on ice. To each sample was added 5× first strand buffer (6 μl), 0.1 M DTT (3 μl), dNTP mix (5 mM dATP, dGTP and dTTP and 2 mM dCTP) (1 μl), RNaseOut (1 μl), Superscript II reverse transcriptase (2 μl) and Cy-dCTP (3 μl). Reverse transcription was carried out at 42° C. for 1 hr. RNA was removed by addition of 10 μl NaOH (1 M) and incubation at 65° C. for 10 min. The samples were neutralised by addition of 10 μl HCl (1 M). Cy3 and Cy5 cDNA samples were mixed and immediately purified with a GFX PCR DNA and Gel Band Purification Kit (Amersham Biosciences).
# Slides were pre-hybridised at 42° C. for 45 min in a solution containing 4×SSC+0.5% SDS+1% BSA and dried by centrifugation. Hybridizations were in a volume of 25 μl under a supported cover slip at 42° C. for 16-18 h at high humidity. The hybridisation mixture was labelled cDNA in a formamide-based hybridisation buffer (MWG—supplied with the pan-arrays). Cover slip and supports were gently removed (2×SSC in a wash tray) and arrays were washed by immersion into 2×SSC+0.1% SDS for 5 min, 1×SSC+0.1% SDS for 5 min, 0.5×SSC for 5 min and 1× millipore water for 10 sec and dried by centrifugation. Slides were scanned on a GMS 418 scanner to detect Cy3 and Cy5 fluorescence. Data analysis was carried out using ImaGene 5.0 and GeneSight 3.5 from BioDiscovery (www.biodiscovery.com). Two biological replicate experiments with four replicate hybridisations in each experiment were carried out for generation of data.
# Pan E. coli K12 Arrays from MWG Biotech were used in this study (lot No.: 020206). The 4239 E. coli K12 specific oligonucleotide probes present on this glass-based DNA chip represent the complete Escherichia coli (K12) genome
# Gene expression data was analyzed using the GeneSight 4.1.5 software from BioDiscovery. Data was prepared using local background correction, removal of flagged spots (contaminated background or signal), floor value raising data to a minimum value of 20, calculation of ratio, log(2) transformation of ratios, print-tip lowess normalization, and finally combination of replicate spot.
structure (smiles),measurement,value
CC[C@H](C)[C@H](NC(=O)CNC(=O)[C@H](CCCCN)NC(=O)[C@H](CCCNC(=N)N)NC(=O)[C@@H](NC(=O)[C@@H](NC(=O)[C@H](CCCNC(=N)N)NC(=O)[C@H](CCCNC(=N)N)NC(=O)[C@H](CC(C)C)NC(=O)[C@H](CC(N)=O)NC(=O)[C@@H](N)CCCCN)[C@@H](C)CC)[C@@H](C)CC)C(=O)N[C@@H](Cc1c[nH]cn1)C(=O)N[C@H](C(=O)N[C@H](C(=O)N[C@@H](CCCCN)C(=O)N[C@@H](CCCCN)C(=O)N[C@@H](Cc1ccc(O)cc1)C(=O)NCC(=O)O)[C@@H](C)CC)[C@@H](C)CC [Novispirin G10] (H-KNLRRIIRKGIHIIKKYG-OH; N-terminus assumed),"ratio, gene abrB",−6.2
same,"ratio, gene ackA",−4.8
same,"ratio, gene adhP",3.8
same,"ratio, gene aer",14.3
same,"ratio, gene agaZ",−2.9
same,"ratio, gene ais",14.1
same,"ratio, gene amyA",5.8
same,"ratio, gene ansB",−3.8
same,"ratio, gene appB",47.2
same,"ratio, gene appC",3.5
same,"ratio, gene argA",3.8
same,"ratio, gene aspA",−5.7
same,"ratio, gene asr",19.2
same,"ratio, gene atpC",3.1
same,"ratio, gene b0919",−2.8
same,"ratio, gene b1044",−3.0
same,"ratio, gene b1354",3.0
same,"ratio, gene b1355",5.0
same,"ratio, gene b1362",−14.9
same,"ratio, gene b1394",2.8
same,"ratio, gene b1408",3.3
same,"ratio, gene b1422",3.0
same,"ratio, gene b1450",4.8
same,"ratio, gene b1454",9.7
same,"ratio, gene b1518",−3.8
same,"ratio, gene b1520",3.2
same,"ratio, gene b1582",6.8
same,"ratio, gene b1583",4.3
same,"ratio, gene b1593",−5.0
same,"ratio, gene b1605",3.0
same,"ratio, gene b1627",3.5
same,"ratio, gene b1643",4.5
same,"ratio, gene b1691",3.7
same,"ratio, gene b1721",98.3
same,"ratio, gene b1724",9.1
same,"ratio, gene b1825",8.7
same,"ratio, gene b1826",4.6
same,"ratio, gene b1836",6.9
same,"ratio, gene b1837",5.3
same,"ratio, gene b1903",−3.1
same,"ratio, gene b1953",3.8
same,"ratio, gene b1995",−3.1
same,"ratio, gene b2097",8.1
same,"ratio, gene b2253",8.4
same,"ratio, gene b2254",5.5
same,"ratio, gene b2256",4.0
same,"ratio, gene b2324",−4.0
same,"ratio, gene b2372",3.8
same,"ratio, gene b2383",−4.1
same,"ratio, gene b2809",3.4
same,"ratio, gene b2833",5.1
same,"ratio, gene b2879",2.9
same,"ratio, gene b3023",3.9
same,"ratio, gene b3100",9.9
same,"ratio, gene blc",4.9
same,"ratio, gene bolA",13.0
same,"ratio, gene btuE",3.4
same,"ratio, gene btuR",−2.8
same,"ratio, gene celF",4.1
same,"ratio, gene cheR",6.8
same,"ratio, gene clpB",−3.6
same,"ratio, gene codA",3.4
same,"ratio, gene crcA",11.7
same,"ratio, gene csgF",2.8
same,"ratio, gene dacC",3.6
same,"ratio, gene dcuC",−6.2
same,"ratio, gene deoA",3.8
same,"ratio, gene deoB",3.0
same,"ratio, gene deoR",2.9
same,"ratio, gene dgt",−2.7
same,"ratio, gene dksA",4.1
same,"ratio, gene dnaJ",−3.0
same,"ratio, gene dnaK",−2.8
same,"ratio, gene dps",4.4
same,"ratio, gene ebgR",−3.0
same,"ratio, gene ecpD",−3.7
same,"ratio, gene elaB",9.7
same,"ratio, gene entF",−3.2
same,"ratio, gene evgA",−2.9
same,"ratio, gene fadL",−2.6
same,"ratio, gene fdnG",−3.3
same,"ratio, gene fecE",−2.7
same,"ratio, gene fecR",−3.6
same,"ratio, gene feoA",−6.1
same,"ratio, gene feoB",−5.2
same,"ratio, gene fepC",−2.7
same,"ratio, gene fhuE",−2.7
same,"ratio, gene fimC",3.8
same,"ratio, gene flgG",−2.6
same,"ratio, gene flhB",−2.8
same,"ratio, gene flhD",−2.7
same,"ratio, gene fliD",5.4
same,"ratio, gene fliJ",−3.1
same,"ratio, gene fliQ",4.5
same,"ratio, gene folA",3.2
same,"ratio, gene frdC",−5.0
same,"ratio, gene frwB-r",4.0
same,"ratio, gene gabP",8.2
same,"ratio, gene gabT",6.5
same,"ratio, gene gapC_1",3.3
same,"ratio, gene gatA",−3.0
same,"ratio, gene gatC",−2.7
same,"ratio, gene gatD",−3.2
same,"ratio, gene gatY",−6.2
same,"ratio, gene gatz",−6.8
same,"ratio, gene gcvH",−3.9
same,"ratio, gene gcvT",−4.8
same,"ratio, gene glk",3.4
same,"ratio, gene glpA",−2.7
same,"ratio, gene glpA-r",−2.9
same,"ratio, gene glpB",−7.8
same,"ratio, gene glpC",−5.9
same,"ratio, gene glpT",−3.6
same,"ratio, gene gltB",−2.7
same,"ratio, gene gntT",−4.3
same,"ratio, gene grpE",−3.0
same,"ratio, gene hdeA",7.7
same,"ratio, gene hdeB",7.9
same,"ratio, gene hdeD",4.3
same,"ratio, gene hemL",8.3
same,"ratio, gene hisC",−4.5
same,"ratio, gene hscA",3.2
same,"ratio, gene hslU",−3.2
same,"ratio, gene hslV",−3.0
same,"ratio, gene hybB",−2.9
same,"ratio, gene hyfD",−2.9
same,"ratio, gene hypB",−3.4
same,"ratio, gene hypC",−3.0
same,"ratio, gene hypE",−3.9
same,"ratio, gene ibpB",−6.5
same,"ratio, gene katE",9.9
same,"ratio, gene lacY",−2.7
same,"ratio, gene lacZ",−9.1
same,"ratio, gene lon",−2.9
same,"ratio, gene malE",4.6
same,"ratio, gene malM",4.0
same,"ratio, gene mcrA",3.9
same,"ratio, gene menA",−2.9
same,"ratio, gene menB",2.9
same,"ratio, gene metE",4.0
same,"ratio, gene mfd-r",−4.6
same,"ratio, gene mglC",−2.6
same,"ratio, gene mgtA",7.5
same,"ratio, gene minD",−2.9
same,"ratio, gene mlc",−2.6
same,"ratio, gene mopA",−3.6
same,"ratio, gene mopB",−9.1
same,"ratio, gene mrr",2.9
same,"ratio, gene nagA",3.7
same,"ratio, gene nagB",8.8
same,"ratio, gene napD",−3.5
same,"ratio, gene napF",−3.2
same,"ratio, gene napH",−7.9
same,"ratio, gene narU",15.1
same,"ratio, gene narX",−4.0
same,"ratio, gene narY",11.0
same,"ratio, gene narZ",4.9
same,"ratio, gene ndh",3.1
same,"ratio, gene nirB",−2.9
same,"ratio, gene nirC",−3.0
same,"ratio, gene nirD",−5.7
same,"ratio, gene nmpC",−6.6
same,"ratio, gene nrfA",−12.7
same,"ratio, gene ompF",−4.5
same,"ratio, gene ompX",4.7
same,"ratio, gene osmC",7.2
same,"ratio, gene osmE",11.7
same,"ratio, gene osmY",6.4
same,"ratio, gene otsA",5.2
same,"ratio, gene otsB",5.6
same,"ratio, gene pepB",4.7
same,"ratio, gene pheP",3.4
same,"ratio, gene phnE",4.6
same,"ratio, gene phoP",2.8
same,"ratio, gene phoQ",3.7
same,"ratio, gene potG",4.0
same,"ratio, gene poxB",3.3
same,"ratio, gene pphA",5.2
same,"ratio, gene proW",7.9
same,"ratio, gene pspA",6.7
same,"ratio, gene pspB",6.9
same,"ratio, gene pspC",15.8
same,"ratio, gene pspD",13.5
same,"ratio, gene pspE",9.4
same,"ratio, gene pssA",−2.8
same,"ratio, gene ptsP-r",−3.9
same,"ratio, gene pyrE",4.2
same,"ratio, gene queA",−2.9
same,"ratio, gene rcsA",−2.8
same,"ratio, gene rfaJ",−2.6
same,"ratio, gene rfaP",−3.0
same,"ratio, gene rmf-r",3.9
same,"ratio, gene rnt",3.9
same,"ratio, gene rpiR",−3.1
same,"ratio, gene rpoB-r",2.8
same,"ratio, gene rpsV",5.2
same,"ratio, gene rstB",3.6
same,"ratio, gene sfcA",5.8
same,"ratio, gene sfmC",11.4
same,"ratio, gene sfsA",6.4
same,"ratio, gene slp",3.6
same,"ratio, gene smp",−3.2
same,"ratio, gene sohA",4.3
same,"ratio, gene speG",3.8
same,"ratio, gene srlA",−2.7
same,"ratio, gene srlR",−2.6
same,"ratio, gene talA",11.7
same,"ratio, gene tdcB",−2.7
same,"ratio, gene tdcC",−5.1
same,"ratio, gene thrB",3.3
same,"ratio, gene tktB",26.5
same,"ratio, gene tolC",3.9
